Assay [1] addresses 1-phosphatidylinositol 4,5-bisphosphate phosphodiesterase gamma-1 (Homo sapiens, UniProt P19174). The assay can be described thus: Counterscreen for inhibitors of phospholipase C isozymes (PLC-B3): Fluorescence-based biochemical high throughput dose response assay to identify inhibitors of phospholipase C isozymes (PLC-gamma1). In general terms: The purpose of a counterscreen is to sort out artefacts and off-target activity.

The target of assay [2] is 1-phosphatidylinositol 4,5-bisphosphate phosphodiesterase beta-3 (Homo sapiens, UniProt Q01970). The experiment in a line: Fluorescence-based biochemical high throughput dose response assay to identify inhibitors of phospholipase C isozymes (PLC-B3).
Assay [3] addresses FAD-linked sulfhydryl oxidase ALR (Homo sapiens, UniProt P55789). The experiment in a line: inhibitors of human ALR sulfhydryl oxidase, dose response, biochemical, H2O2 detection, luminescence, cherry-pick (AID 493248).
For assay [4], the target named is DNA dC->dU-editing enzyme APOBEC-3A (Homo sapiens, UniProt P31941). The assay can be described thus: APOBEC3A DNA deaminase inhibitors, dose response, biochemical (AID 504722). It is filed as functional.
Assay [5] has as its target Peroxisome proliferator-activated receptor gamma/Nuclear receptor coactivator 2 (Homo sapiens, UniProt P37231). The experiment in a line: TR-FRET dose response biochemical High Throughput Screening assay for agonists of the steroid receptor coactivator 2 (SRC-2) recruitment by the peroxisome proliferator-activated receptor gamma (PPAR gamma): non-selective agonists. [Related pubchem assays: 1297, 1032 ]. It is filed as functional. For orientation: In TR-FRET formats the signal depends on donor and acceptor labels being close together.

Assay [6] addresses DNA dC->dU-editing enzyme APOBEC-3G (Homo sapiens, UniProt Q9HC16). The experiment in a line: Dose Response confirmation of small molecule APOBEC3G DNA Deaminase Inhibitors via a fluorescence-based single-stranded DNA deaminase assay. [Related pubchem assays (depositor defined):AID493012, AID493028]. It is filed as functional.
Assay [7] has as its target Peroxisome proliferator-activated receptor gamma/Nuclear receptor coactivator 3 (Homo sapiens, UniProt P37231). The assay can be described thus: TR-FRET dose response biochemical High Throughput Screening assay for agonists of the steroid receptor coactivator 3 (SRC-3) recruitment by the peroxisome proliferator-activated receptor gamma (PPAR gamma): non-selective agonists. [Related pubchem assays: 1301 (Confirmation screen.), 1048 (Primary screen.)]. It is filed as functional.

The target of assay [8] is Major prion protein (Homo sapiens, UniProt P04156). It is filed as functional, cell-based.
Assay [9] concerns the target Peroxisome proliferator-activated receptor gamma/Nuclear receptor coactivator 1 (Homo sapiens, UniProt P37231). The assay can be described thus: TR-FRET dose response biochemical High Throughput Screening assay for agonists of the steroid receptor coactivator 1 (SRC-1) recruitment by the peroxisome proliferator-activated receptor gamma (PPAR gamma): non-selective agonists. [Related pubchem assays (depositor defined):AID1300, AID1808, AID504735, AID631]. It is filed as protein assay.

Assay [10] in a line: cells.
The target in assay [11] is Mu-type opioid receptor (Homo sapiens, UniProt P35372). The assay can be described thus: Late-stage results from the probe development effort to identify antagonists of OPRK1: luminescence-based cell-based dose response OPRM1 counterscreen, Set 2. It is filed as functional.
Assay [12] has as its target Delta-type opioid receptor (Homo sapiens, UniProt P41143). The assay can be described thus: Late-stage results from the probe development effort to identify antagonists of OPRK1: fluorescence-based cell-based dose response OPRD1 counterscreen, Set 2. It is filed as functional.
Assay [13] addresses Sphingosine 1-phosphate receptor 1 (Homo sapiens, UniProt P21453). The experiment in a line: Late-stage counterscreen for antagonists of kappa opioid receptor 1 (OPRK1): fluorescence-based cell-based dose response assay to identify antagonists of Sphingosine 1-Phosphate Receptor 1 (S1P1). It is filed as functional.
Assay [14] has as its target Kappa-type opioid receptor (Homo sapiens, UniProt P41145). The experiment in a line: Late-stage fluorescence-based cell-based dose response assay for antagonists of kappa opioid receptor 1 (OPRK1). It is filed as functional.
Assay [15] is described as follows: inhibitors of non-replicating M. tuberculosis, dose response, luciferase, dry powder (AID 651620). Conditions: Mycobacterium tuberculosis. It is filed as functional.
Assay [16] can be described thus: growth inhibition of replicating M. tuberculosis, dose response, counter-screen, dry powder, IC90 (AID 651617). It is filed as functional. To be noted: Mycobacterium tuberculosis.
Assay [17] is described as follows: HEK293T cell cytotoxicity, dose response, cytotoxicity control, CellTiter-Glo luminescence, dry powder, set 6 (AID 651949). It is filed as functional, cell-based. Conditions: HEK293. A general note: Cellular ATP, detected with luciferase, serves as a proxy for viable cell number.
Assay [18] can be described thus: inhibitors of non-replicating M. tuberculosis, dose response, luciferase, dry powder (AID 651619). To be noted: Mycobacterium tuberculosis. It is filed as functional.
Assay [19] in a line: inhibitors of fibronectin matrix deposition, dose response, AH1F cells, Alexa488-FN fluorescence, cherry-picks (AID 1035475). It is filed as functional, cell-based.
Assay [20] addresses Glucose-6-phosphate 1-dehydrogenase (Homo sapiens, UniProt P11413). The assay can be described thus: human G6PD enzyme inhibitors, dose response, selectivity assay for P. falciparum G6PD inhibitor project, biochemical, fluorescence (AID 504792). It is filed as functional.
Assay [21] can be described thus: HeLa cell cytotoxicity, dose response, cytotoxicity control for MgcRacGAP inhibitor project (AID 624300). It is filed as functional.
Assay [22] addresses SWI/SNF-related matrix-associated actin-dependent regulator of chromatin subfamily A member 2 (Homo sapiens, UniProt P51531). The experiment in a line: Luminescence-based cell-based high throughput dose response assay to identify activators of the function of SWI/SNF related, matrix associated, actin dependent regulator of chromatin, subfamily a, member 2 (SMARCA2, BRM). It is filed as functional.

The nature of assay [23]: cells. Conditions: A549.
Assay [24] is described as follows: cells. To be noted: HEK293.
In assay [25] the test system is A-375. The assay can be described thus: MITF: Counter assay: A375 proliferation Measured in Cell-Based System Using Plate Reader - 2084-03_Inhibitor_Dose_DryPowder_Activity. [Related pubchem assays (depositor defined):AID488944]. It is filed as functional. To be noted: Homo sapiens.
Assay [26] is described as follows: Counterscreen for activators of the function of SWI/SNF related, matrix associated, actin dependent regulator of chromatin, subfamily a, member 2 (SMARCA2, BRM): Luminescence-based cell-based high throughput dose response assay to identify non-selective compounds using the VP16 reporter assay. It is filed as functional.
Assay [27] can be described thus: HepG2 cell cytotoxicity, dose response, cytotoxicity control, ATP luminescence, cherry-pick, set 6 (AID 1053125). It is filed as functional, cell-based.
The target in assay [28] is T1, Microphthalmia-associated transcription factor (Homo sapiens, UniProt O75030).
T1 sequence (O75030 whole entry): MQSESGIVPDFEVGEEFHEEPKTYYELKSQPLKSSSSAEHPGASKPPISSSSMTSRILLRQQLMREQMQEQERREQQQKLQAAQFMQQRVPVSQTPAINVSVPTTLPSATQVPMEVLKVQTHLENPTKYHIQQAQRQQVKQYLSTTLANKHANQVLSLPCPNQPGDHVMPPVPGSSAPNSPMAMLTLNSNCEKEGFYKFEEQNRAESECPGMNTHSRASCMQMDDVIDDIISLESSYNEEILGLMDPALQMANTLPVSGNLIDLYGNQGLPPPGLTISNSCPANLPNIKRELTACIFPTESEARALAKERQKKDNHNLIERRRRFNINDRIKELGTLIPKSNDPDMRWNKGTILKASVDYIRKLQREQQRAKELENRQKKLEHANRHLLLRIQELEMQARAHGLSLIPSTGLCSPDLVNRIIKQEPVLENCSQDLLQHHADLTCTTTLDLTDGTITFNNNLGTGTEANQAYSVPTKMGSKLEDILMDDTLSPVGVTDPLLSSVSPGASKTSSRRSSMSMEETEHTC
The experiment in a line: TRPM1 promoter luciferase signal decrease, dose response, MITF inhibitor project, cell-based, SK-MEL-5, cherry-picked, set 3 (AID 493073).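 Further: SK-MEL-5 melanoma cells with luciferase driven by the MITF target TRPM1 promoter.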 It is filed as functional.

Assay [29] deals with T2, Oxysterols receptor LXR-beta (Homo sapiens, UniProt P55055).
T2 sequence (P55055 whole entry): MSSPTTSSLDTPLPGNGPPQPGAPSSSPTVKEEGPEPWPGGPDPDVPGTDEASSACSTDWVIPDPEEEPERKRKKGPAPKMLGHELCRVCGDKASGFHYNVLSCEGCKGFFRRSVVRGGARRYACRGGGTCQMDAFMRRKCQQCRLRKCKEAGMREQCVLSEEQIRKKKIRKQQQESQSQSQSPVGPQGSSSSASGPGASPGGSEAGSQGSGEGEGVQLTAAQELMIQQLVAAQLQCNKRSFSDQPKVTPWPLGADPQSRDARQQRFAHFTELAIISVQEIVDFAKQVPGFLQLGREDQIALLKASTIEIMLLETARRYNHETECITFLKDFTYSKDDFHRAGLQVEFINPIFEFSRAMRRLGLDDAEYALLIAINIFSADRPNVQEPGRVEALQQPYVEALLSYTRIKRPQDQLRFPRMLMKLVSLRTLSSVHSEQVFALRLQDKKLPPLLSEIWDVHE
It is filed as functional, cell-based.

A short description of assay [30]: Luminescence-based cell-based high throughput dose response assay to identify activators of the DAF-12 from the parasite S. stercoralis (ssDAF-12). It is filed as functional.
The nature of assay [31]: HepG2 cell cytotoxicity, dose response, cytotoxicity control, ATP luminescence, cherry-pick, activator set 2 (AID 1053143). It is filed as functional, cell-based.
For assay [32], the target named is T3, Protein skinhead-1 (Caenorhabditis elegans, UniProt P34707).
T3 sequence (P34707 whole entry): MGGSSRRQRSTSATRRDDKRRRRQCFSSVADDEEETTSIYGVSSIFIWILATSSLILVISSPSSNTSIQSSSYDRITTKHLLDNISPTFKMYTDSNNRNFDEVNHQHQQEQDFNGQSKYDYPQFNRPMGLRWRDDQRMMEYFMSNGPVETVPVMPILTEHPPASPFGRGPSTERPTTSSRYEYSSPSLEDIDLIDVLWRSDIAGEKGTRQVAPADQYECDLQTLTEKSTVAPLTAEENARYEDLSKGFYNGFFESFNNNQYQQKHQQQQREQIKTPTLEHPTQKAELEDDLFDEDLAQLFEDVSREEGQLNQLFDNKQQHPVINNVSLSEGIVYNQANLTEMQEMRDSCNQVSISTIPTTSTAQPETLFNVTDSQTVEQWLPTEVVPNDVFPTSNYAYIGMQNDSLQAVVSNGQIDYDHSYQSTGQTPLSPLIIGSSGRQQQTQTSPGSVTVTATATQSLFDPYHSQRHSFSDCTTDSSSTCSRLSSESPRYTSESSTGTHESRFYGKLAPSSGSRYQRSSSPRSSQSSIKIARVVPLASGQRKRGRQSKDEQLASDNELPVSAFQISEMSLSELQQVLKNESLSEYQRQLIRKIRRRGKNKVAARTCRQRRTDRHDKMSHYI
It is filed as functional.

Assay [33] has as its target T2, Oxysterols receptor LXR-beta. The assay can be described thus: LXR agonists, Gal4 luciferase reporter, dose response, counter-screen for ssDAF-12 agonist project, cell-based, luminescence, HEK293, S. stercoralis campaign (AID 720737). It is filed as functional. Conditions: read-out: IC50 (the source's name).
Assay [34] is described as follows: Luminescence Cell-Based Dose Retest to Confirm Inhibitors of Cancer Stem Cells. [Related pubchem assays (depositor defined):AID2717, AID2721]. To be noted: Homo sapiens. It is filed as functional.

The term IC50 denotes the concentration that gives 50% inhibition. One may read the AC50 as the concentration giving half of the maximal activity seen. By IC90 is commonly meant the concentration needed for an effect of 90%. What is called CC50 is the concentration that lowers cell viability or growth by half.

Molecules are shown by their SMILES. Calls of active or inactive are those of the source.

For `O=C(NCc1ccc(F)cc1)c1cc2c(s1)CCCC2`, the IC50 in [1] and in [2] was > 123 µM (inactive) throughout.

Turning to `COc1ccccc1-c1n[nH]c(=S)n1-c1ccccc1`, the AC50 in assay [3] was 0.058 µM (active). Further, the IC50 in [4] was > 100 µM (inactive); in [6] it was 4.99 µM (active); in assay [8], 7.18 µM (active). Besides, the EC50 is 6.26 µM (active) in assay [5], > 79.4 µM (not active) in [7] and 10.5 µM (inactive) in [9].

With `COc1ccccc1-c1nnc(S)n1-c1ccccc1`, in assay [10], the IC50 is > 138 µM (inactive).

As for `CN(C)c1cccc2c1c(NC(=O)Nc1ccc(OCc3ccccc3)cc1)nn2C`, the IC50 was 42.9 µM (inactive) in assay [11], 4.38 µM (active) in [12], 34.9 µM (inactive) in assay [13] and 1.82 µM (active) in assay [14].

For `Fc1ccc(Cn2cc(CSc3nnc(C4CCC4)o3)nn2)cc1`, the figures for the IC90 in [15], in assay [16] and in assay [18] were 4 µM (active), 250 µM (active) and 4 µM (active), respectively. The AC50 in [17] was 47.1 µM (active).

Turning to `O=C(Nc1nc(-c2ccncc2)cs1)C1COc2ccccc2O1` (centres undefined), in [19], the half-maximal activity concentration (AC50) is 0.512 µM (active). For the same molecule, in assay [20], the IC50 is > 80 µM (inactive). For the same molecule, the CC50 in assay [21] is 100 µM (active).

For `c1ccc2cc3c(NCCN4CCOCC4)ccnc3cc2c1`, the EC50 in assay [22] was 11.1 µM (inactive); in [26] it was > 91.2 µM (inactive). Moreover, the concentration at half-maximal activity (AC50) in assay [23] is 6.11 µM (active); in assay [24], 9.44 µM (active); in assay [25], 21.2 µM (active); in [27], 12 µM (active); in [28], 2.91 µM (active).

Consider `Oc1cccc(/C=C/c2ccc3cccc(O)c3n2)c1`, for which the EC50 in assay [29] and in assay [33] was > 67.6 µM (inactive) each time. Also, the IC50 is > 67.6 µM (inactive) in assay [30] and > 100 µM (inactive) in assay [32]. The figures for the concentration at half-maximal activity (AC50) in assay [31] and in [34] were 26 µM (active) and 3.91 µM (active), respectively.

Source of the values: ChEMBL document CHEMBL1201862, “PubChem BioAssay data set” (2004).
